Assays:
HbF [1] = assay: Western blot analysis of HbF induction in KU812 cells; format: cell-based, human; details: for HbF induction by Western blot: tested concentrations 0.5-20 μM; for increased HbF (Western blot): at concentrations between 0.5 to 5 PM
Protocol: (§1) About 20-50 ug of protein is separated by SDS-polyacrylamide gel electrophoresis, and transferred to nitrocellulose membranes. Membranes are blocked in 5% dry milk containing TBS-T for 30 minutes followed by one hour and incubated with HbF or actin antibodies. After several washes, membranes are incubated with 1:10000 diluted HRP-conjugated secondary antibody (Thermo Scientific), developed with ECL Prime reagent (GE Healthcare Biosciences). Images may be captured on a Bio-Rad Chemi-Doc MP Imaging System and protein bands quantified by densitometry.
(§2) KU812, a human leukemic cell line that expresses the fetal gamma-globin and adult beta-globin genes, was used as a system for screening. […] (See Zein S, Lou R F, Sivanand S, Ramakrishnan V, Mackie A, Li W, Pace BS. KU812 Cell Line: model for identifying fetal hemoglobin inducing drugs. Exp Biol Med (Maywood) 235:1385-94, 2010.) KU812 cells were grown in Iscove's Modified Dulbecco Media (IMDM) and 10% fetal bovine serum until in log phase growth.
Western blot analysis was also conducted to determine level of induction of HbF in KU812 cells by Compounds 73, 134, 473, and 236. Hydroxyurea and hemin were used as positive controls, and ß-actin was used as a protein loading control.

KU812 cells = assay: KU812 cell counts and viability by 0.4% Trypan blue exclusion; format: cell-based, human; details: 48 hours, 0.5, 2.5, 5.0 and 20 μM, widest range of drug concentrations
Protocol: as §2
KU812 cells in log growth phase were treated with compounds 73, 134, 473 and 236 (See Table A) at a doses of 0.5, 2.5, 5.0 and 20 μM for 48 hours. At harvest, cell counts and viability were measured by 0.4% Trypan blue exclusion.

HbF [2] = assay: Flow cytometry of KU812 cells for HbF positive cells (F-cells) and MFI; format: cell-based, human; details: flow cytometry, 0.5, 2.5, 5, 10, and 20 μM
Protocol: (§3) About 5×10^5 cells are harvested after treatment with compound, washed twice with ice cold phosphate buffered saline and resuspended in 4% paraformaldehyde for 40 minutes at 37° C. Fixed cells are permeabilized with ice-cold acetone/methanol (4:1) and washed with phosphate buffered saline followed by incubation with FITC-conjugated anti-HbF antibody (1:1000, Abcam) for 20 minutes. The labeled cells may be analyzed using a Becton Dickerson LSR-II flow cytometer (BD Bioscience, San Jose, CA, USA) and FlowJo v0.9 software.
as §2
Flow cytometry was conducted for KU812 cells following treatment with Compounds 473 and 236 at various concentrations (0.5, 2.5, 5, 10, and 20 μM). […] Compounds 73 and 134 were not analyzed by flow cytometry.

HbS = assay: Western blot of HbS protein in sickle erythroid progenitor cells; format: cell-based; details: 0.5 μM and 2.5 μM, 48 hours
Protocol: as §1
(§4) To test compounds under conditions more closely modeling physiological conditions for one with a SCD, sickle erythroid progenitor cells were cultured for 10 days and then treated with Compound 473 for 48 hours at concentrations of 0.5 μM and 2.5 μM. Treated cells were analyzed by western blot for levels of expression of HbF, HbS, and ß-actin relative to cells treated with DMSO, hemin, or HU. The same treated cells were also analyzed by flow cytometry for y-globin gene expression relative to cells treated with DMSO, hemin, or HU.

γ-globin = γ-globin / HbF expression in sickle erythroid progenitor cells; format: cell-based; details: 48 hours
Protocol: as §1
About 5×10^5 cells are harvested after treatment with compound, washed twice with ice cold phosphate buffered saline and resuspended in 4% paraformaldehyde for 40 minutes at 37° C. […] The labeled cells may be analyzed using a Becton Dickerson LSR-II flow cytometer (BD Bioscience, San Jose, CA, USA) and FlowJo v0.9 software.
To test compounds under conditions more closely modeling physiological conditions for one with a SCD, sickle erythroid progenitor cells were cultured for 10 days and then treated with Compound 473 for 48 hours at concentrations of 0.5 μM and 2.5 μM. Treated cells were analyzed by western blot for levels of expression of HbF, HbS, and ß-actin relative to cells treated with DMSO, hemin, or HU. […]

HbF [3] = assay: Flow cytometry of F-cells in sickle erythroid progenitor cells; format: cell-based; details: 0.5 μM and 2.5 μM, 48 hours
Protocol: as §3, §4

[4] = tested on: sickle erythroid progenitor cells; assay: Anti-sickling activity in sickle erythroid progenitor cells under hypoxia; format: cell-based; details: 0.5 μM and 2.5 μM, 48 hours, hypoxia (1% O2 and 5% CO2)
Protocol: As described above, sickle erythroid progenitor cells were cultured for 10 days and then treated with Compound 473 for 48 hours at concentrations of 0.5 μM and 2.5 μM or with hemin (about 50 μM) or with HU (about 100 μM). Treated cells were then subjected to hypoxia conditions (1% O2 and 5% CO2).

Row | SMILES | HbF induction by Western blot (HbF [1]) | effects on cell growth rates (KU812 cells) | increased HbF (Western blot) (HbF [1]) | mean fluorescence intensity (MFI) (HbF [2]) | number of HbF positive cells (F-cells) (HbF [2]) | HbS protein levels (HbS) | γ-globin gene expression induction (γ-globin; 0.5 μM) [fold] | γ-globin gene expression induction (γ-globin; 2.5 μM) [fold] | F-cell levels by flow cytometry (HbF [3]) | percent of sickled cells compared to DMSO control [4]
1 | COCCNC(=O)c1cnc2c(c1)nc(Nc1nc3ccc(OC(F)(F)F)cc3s1)n2C [Compound 73, 3-Methyl-2-(6-trifluoromethoxy-benzothiazol-2-ylamino)-3H-imidazo[4,5-b]pyridine-6-carboxylic acid (2-methoxy-ethyl)-amide] | showed HbF induction | – | – | – | – | – | – | – | – | –
2 | CN(C)C(=O)CNC(=O)c1ccc2c(c1)nc(Nc1nc3ccc(C(F)(F)F)cc3s1)n2C [Compound 134, 1-Methyl-2-(6-trifluoromethyl-benzothiazol-2-ylamino)-1H-benzimidazole-5-carboxylic acid dimethylcarbamoylmethyl-amide] | showed HbF induction | minimal effects | increased HbF | – | – | – | – | – | – | –
3 | Cn1c(Nc2nc3ccc(C(F)(F)F)cc3s2)nc2cc(C(=O)NCCOCCO)ccc21 [Compound 236, 1-Methyl-2-(6-trifluoromethyl-benzothiazol-2-ylamino)-1H-benzoimidazole-5-carboxylic acid [2-(2-hydroxy-ethoxy)-ethyl]-amide] | did not show significant induction of HbF | – | – | some increase in MFI | did not significantly increase F-cells | – | – | – | – | –
4 | Cn1c(Nc2nc3ccc(C(F)(F)F)cc3s2)nc2cc(C(=O)NCCOCCO)cnc21 [Compound 473, N-[2-(2-Hydroxyethoxy)ethyl]-3-methyl-2-[[6-(trifluoromethyl)-1,3-benzothiazol-2-yl]amino]imidazo[4,5-b]pyridine-6-carboxamide] | showed HbF induction | minimal effects | increased HbF | increased mean fluorescence intensity | increase in the number of HbF positive cells | without affecting HbS protein levels | 1.6 | 1.9 | Increased F-cell levels | significantly decreased the percent of sickled cells

From patent US20260034107A1, “SUBSTITUTED FUSED IMIDAZOLE DERIVATIVES AND METHODS OF TREATING SICKLE CELL DISEASE AND RELATED COMPLICATIONS” (vTv Therapeutics LLC, priority 2019, published 2026)
